We go through three compounds from article PMC8554850, “Allergens of the urushiol family promote mitochondrial dysfunction by inhibiting the electron transport at the level of cytochromes b and chemically modify cytochrome c1” (Biological Research, 2021).

Experiment [1] addresses T1, complex III (cytochrome bc1) (Rattus norvegicus, UniProt P00159).
T1 construct: gene Mt-cyb; native complex III in liver mitochondria / submitochondrial particles; with Cytochrome c1, heme protein, mitochondrial; Cytochrome b-c1 complex subunit Rieske, mitochondrial
The experiment is described as follows: duroquinol:cytochrome c reduction, Hanes-Woolf; cytochrome b redox spectrophotometry. Format: biochemical.

Experiment [2] concerns the target T2, cytochrome c1 (Bos taurus, UniProt P00125).
T2 construct: gene CYC1; native, in isolated heart mitochondria (complex III, inner membrane); about 27 kD on SDS-PAGE; printed peptides SDLELHPPSYPWSHR (1-15) and WAAEPEHDHRK (192-202)
T2 sequence (P00125 85-325): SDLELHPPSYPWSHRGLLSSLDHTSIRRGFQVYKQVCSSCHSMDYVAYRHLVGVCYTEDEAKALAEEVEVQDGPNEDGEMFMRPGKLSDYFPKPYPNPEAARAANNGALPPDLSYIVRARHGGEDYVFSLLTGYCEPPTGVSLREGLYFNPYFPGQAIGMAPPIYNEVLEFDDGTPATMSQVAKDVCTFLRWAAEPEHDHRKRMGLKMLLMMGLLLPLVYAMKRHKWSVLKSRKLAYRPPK
The experiment is described as follows: tritium labelling of mitochondria, 1D and 2D-PAGE photofluorography, western blot, tryptic mass fingerprint. The experiment is classed as binding. The following applies: covalent; labelled compound; 5 µM, 30 min, 25 °C, then chased with 1 mM cold litreol; Lys202 and N-terminal peptide proposed.

T1 sequence (P00159 whole entry): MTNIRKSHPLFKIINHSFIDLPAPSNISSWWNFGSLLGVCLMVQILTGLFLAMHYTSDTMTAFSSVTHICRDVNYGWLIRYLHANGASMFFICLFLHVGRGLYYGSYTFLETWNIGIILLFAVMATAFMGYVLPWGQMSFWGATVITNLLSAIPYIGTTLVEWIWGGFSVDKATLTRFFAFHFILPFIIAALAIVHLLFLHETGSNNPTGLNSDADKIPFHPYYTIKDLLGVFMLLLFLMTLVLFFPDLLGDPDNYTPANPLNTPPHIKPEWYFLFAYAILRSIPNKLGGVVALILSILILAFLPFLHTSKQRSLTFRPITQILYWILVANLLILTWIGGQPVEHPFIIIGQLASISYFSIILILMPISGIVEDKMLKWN
T1 sequence (D3ZFQ8 87-326 partner): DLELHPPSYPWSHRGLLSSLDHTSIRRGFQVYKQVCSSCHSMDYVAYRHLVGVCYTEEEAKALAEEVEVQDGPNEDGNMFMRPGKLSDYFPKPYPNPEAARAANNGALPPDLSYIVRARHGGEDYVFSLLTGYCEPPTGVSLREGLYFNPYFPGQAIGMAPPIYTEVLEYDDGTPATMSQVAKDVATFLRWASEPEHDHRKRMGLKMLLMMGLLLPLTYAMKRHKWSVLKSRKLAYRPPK
T1 sequence (P20788 79-274 partner): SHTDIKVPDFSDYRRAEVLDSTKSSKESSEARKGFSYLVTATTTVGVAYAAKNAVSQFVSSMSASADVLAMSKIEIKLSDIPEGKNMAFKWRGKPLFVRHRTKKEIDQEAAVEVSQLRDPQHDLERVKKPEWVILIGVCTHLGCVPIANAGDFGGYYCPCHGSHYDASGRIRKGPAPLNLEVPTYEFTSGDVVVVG

Consider `CCCC/C=C\CCCCCCCCCc1cccc(O)c1O` [litreol, 3-(10-Z-pentadecenyl)-catechol], for which the “duroquinol:cytochrome c reduction, Hanes-Woolf; cytochrome b redox spectrophotom” value in experiment [1] (noncompetitive vs duroquinol and cytochrome c, 10 µM litreol, electron flow halted between bL and bH, pH 7.4) is “Litreol is a noncompetitive inhibitor of complex III at the level of the cytochrome bc1”.

Turning to `Cc1c(C)c(O)c(C)c(C)c1O` [duroquinol], in experiment [1] (electron donor, acceptor cytochrome c), the “duroquinol:cytochrome c reduction, Hanes-Woolf; cytochrome b redox spectrophotom” value was “The enzyme kinetics of complex III for Dur and cytochrome c were measured”.

As to `CCCCCCCCCCCCCCCc1cccc(O)c1O` [3H-litreol], the “tritium labelling of mitochondria, 1D and 2D-PAGE photofluorography, western blo” value in experiment [2] is “Litreol binds to an inner mitochondrial membrane protein from bovine heart mitochondria”.
